Results taken from US6153611A, “Piperazinyl-cyclohexanes and cyclohexenes” (Bristol-Myers Squibb Company, priority 1993, dated 2000).
Where two headings read alike, the source gives them in different places.

How the values were obtained:
Dopamine D2 = molecular target: T1, Dopamine D2 (Rattus norvegicus, UniProt P61169); experiment: Dopamine D2 Binding Assay ([3H]Spiperone, corpus striatum membranes); set-up: species or system male Sprague-Dawley rats; details: [3H]Spiperone 0.1 nM, 37° C., 15 min
T1 construct: The corpus striatum was crudely dissected and frozen on dry ice; from tissue; host or cells: rat corpus striatum membranes (male Sprague-Dawley rats, Charles River)
T1 sequence (P61169 whole entry): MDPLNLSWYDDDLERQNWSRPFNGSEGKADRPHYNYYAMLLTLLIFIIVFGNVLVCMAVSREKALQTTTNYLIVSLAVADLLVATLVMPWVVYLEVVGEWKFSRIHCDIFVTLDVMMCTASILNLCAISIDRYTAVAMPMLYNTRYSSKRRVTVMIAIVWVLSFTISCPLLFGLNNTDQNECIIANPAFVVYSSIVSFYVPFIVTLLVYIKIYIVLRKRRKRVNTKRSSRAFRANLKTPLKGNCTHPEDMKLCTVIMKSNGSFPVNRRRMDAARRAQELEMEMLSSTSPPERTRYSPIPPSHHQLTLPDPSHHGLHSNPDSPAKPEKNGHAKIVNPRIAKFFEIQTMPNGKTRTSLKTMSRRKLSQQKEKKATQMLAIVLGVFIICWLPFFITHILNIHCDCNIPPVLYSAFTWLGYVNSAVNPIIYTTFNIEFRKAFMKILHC
Protocol: Activity at D2 sites is measured using the screening process set out in Example 67.
Dopamine D2 Binding Assay
Dopamine D2 affinity was determined according to the procedures of Burt, Creese and Snyder [Molecular Pharmacology 12,800 (1976); Science 196, 326 (1977); Science 192, 481 (1976)]. Briefly, male Sprague-Dawley rats (Charles River) were decapitated, brains rapidly removed and chilled in ice-cold 50 mM Hepes/KOH buffer (pH 7.4, 20° C.). The corpus striatum was crudely dissected and frozen on dry ice. Tissue was pooled and stored at -80° C. until use. On the day of assay, tissue was thawed in 20 ml ice-cold Hepes/KOH buffer, and homogenized with a polytron for 15 sec at 18,000 rpm. The homogenate was centrifuged (39,000×g, 10 min, at 4° C.). The supernatant was discarded and the pellet rehomogenized in ice-cold Hepes/KOH buffer and recentrifuged as described previously. The supernatant was again discarded and the pellet resuspended (1:100) in ice-cold Hepes/KOH buffer (pH 7.4, 20° C., containing 120 mM NaCl, 5 mM KCl, 1 mM MgCl2, 0.1% (w/v) ascorbic acid, and 10 μM pargylline, and stored on ice until assay. The binding assay (1 ml total volume) was performed in duplicate and initiated by the addition of 800 μl membrane homogenate to tubes containing 100 μl [^3 H]Spiperone (0.1 nM final concentration), and 100 μl competitor, buffer, or butaclamol, which was used to define the non-specific binding. The assay was incubated at 37° C. for 15 min, afterwhich the assay was terminated by rapid filtration.
In vitro IC50 test values for binding to the D2 receptor were determined for representative compounds of Formula I by the method of Burt, Creese, and Snyder, Molecular Pharmacology 12, 800 (1976); Creese, Burt, and Snyder, Science 196, 326 (1977); and Creese, Burt and Snyder, Science 192, 481 (1976). Test IC50 values greater than 1,000 nM are considered to reflect inactivity at the D2 receptor, indicating the risk of extrapyramidal side effects is small.

sigma receptor = molecular target: T2, sigma receptor (Cavia porcellus, UniProt Q60492); experiment: Sigma binding (method of Tam and Cook)
T2 construct: from tissue
T2 sequence (Q60492 whole entry): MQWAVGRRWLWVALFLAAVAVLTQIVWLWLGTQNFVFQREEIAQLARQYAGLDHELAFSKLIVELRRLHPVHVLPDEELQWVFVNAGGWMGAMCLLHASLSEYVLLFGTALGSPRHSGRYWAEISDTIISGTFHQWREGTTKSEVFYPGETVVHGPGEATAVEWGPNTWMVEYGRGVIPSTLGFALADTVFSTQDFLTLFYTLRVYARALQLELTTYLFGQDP
Protocol: In vitro IC50 test values for binding to the sigma receptor were determined for representative compounds of Formula I by the method of Tam and Cook [see: Tam, S. W., and Cook, L: Proc. Natl. Acad. Sci. USA 81, 5618-5621 (1984)] with only minor modifications. Test IC50 values lower than 100 nM are considered to reflect activity at the sigma receptor.

brain ischemia = experiment: Anoxic Nitrogen Test in Rats; assay type: in vivo, male Sprague-Dawley rats; details: Rattus norvegicus, sc, subcutaneously, 2 hr survival, read-out: Nitrogen Anoxia % Survival
Excerpt: Most specifically, administration of the compounds of Formula I results in protection against hypoxia-induced death in an anoxic nitrogen test in rats (Example 66). The test identifies the neuro-protective effects of substances against lethal brain damages produced by a lack of oxygen consumption (anoxia). In this test procedure, control animals exposed for one minute to a pure nitrogen atmosphere will expire because of respiratory failure caused by irreversible damage to the brain respiratory center.
Anoxic Nitrogen Test in Rats
The animals utilized are male Sprague-Dawley rats (200-400 grams) housed four animals per cage in a normal controlled environment with unlimited access to food and water. Usually there are 8 animals per dose, however, […] can be employed to obtain an initial impression of a compound's activity. Animals are parenterally or orally administered the vehicle or test compound 30 minutes before the anoxic insult. The anoxic episode consists of placing up to 8 animals in the sealed test chamber (10" l×10" w×6" h) continuously flushed with pure N2 (4.5 grade) at a flow rate of 5 SCFM for 1 min. Animals are then promptly removed to normal atmosphere and observed for the 2 hour period. Typically, animals become disoriented within 15 sec after which they remain motionless.
Even though the heart is still beating after the N2 exposure, all control animals fail to gasp when removed from the chamber and usually expire within 3 minutes. Drug treated animals, however, still gasp or start gasping after being removed, which is a good indication that the animals will survive the N2 exposure [see Wauquire, A., et al: Arch. Int. Pharmacodyn., 249, 330-334 (1981); Wauquier, A., et al: Drug Dev. Res., 8, 373-380 (1986)]. Results are recorded as:
(Number of animals surviving (2 hr))/(Number of animals tested)×100%
The anoxic nitrogen test is an in vivo model of brain ischemia in rats [see: Wauquire, A., et al: Arch. Int. Pharmacodyn., 249, 330-334 (1981); Wauquier, A., et al: Drug Dev. Res., 8, 373-380 (1986)]. Compounds of the present invention are active in this in vivo model of brain ischemia when given subcutaneously in the doses indicated in Table 2, thus providing additional evidence that the present compounds will be useful in the treatment of brain ischemia.

## Fc1ccc(C2=CCC(N3CCN(Cc4ccccc4)CC3)CC2)cc1 (stereo not drawn) [Example 35, 1-[4-(4-Fluorophenyl)-3-cyclohexen-1-yl]-4-(phenylmethyl)-piperazine]
Dopamine D2
  IC50: 50000 to 100000 nM
Sigma receptor
  IC50: 1.9 nM
Brain ischemia; 15 & 20 mg/kg
  responders at 15 mg/kg: 100%

## Fc1ccc([C@H]2CC[C@H](N3CCN(Cc4ccccc4)CC3)CC2)cc1 [Example 63, Trans 1-[4-(4-fluorophenyl)-1-cyclohexyl]-4-(phenylmethyl)piperazine]
Dopamine D2
  IC50: 1000 to 10000 nM
Sigma receptor
  IC50: 0.7 nM
Brain ischemia; 20 & 40 mg/kg
  responders at 20 mg/kg: 75%

## C1=C(c2nc3ccccc3s2)CCC(N2CCN(Cc3ccccc3)CC2)C1 (stereo not drawn) [Example 38, 1-[4-(2-Benzothiazolyl)-3-cyclohexen-1-yl]-4-(phenylmethyl)piperazine]
Dopamine D2
  IC50: 10000 to 50000 nM
Sigma receptor
  IC50: 3.9 nM
Brain ischemia; 80 mg/kg
  responders at 80 mg/kg: 100%

## FC(F)(F)c1ccc(C2=CCC(N3CCN(Cc4ccccc4)CC3)CC2)cc1 (stereo not drawn) [Example 40, 1-(Phenylmethyl)-4-[4-[4-(trifluoromethyl)phenyl]-3-cyclohexen-1-yl]piperazine]
Dopamine D2
  IC50: 10000 to 50000 nM
Sigma receptor
  IC50: 4.5 nM
Brain ischemia
  responders at 10 mg/kg: 100%

## Fc1ccc(C2=CCC(N3CCC(Cc4ccccc4)CC3)CC2)cc1 (stereo not drawn) [Example 47, 1-[4-(4-Fluorophenyl)-3-cyclohexen-1-yl]-4-(phenylmethyl)piperidine]
Dopamine D2
  IC50: 1000 to 10000 nM
Sigma receptor
  IC50: 4 nM
Brain ischemia
  responders at 40 mg/kg: 88%

## Fc1ccc(C2=CCC(N3CCN(Cc4ccncc4)CC3)CC2)cc1 (stereo not drawn) [Example 46, 1-[4-(4-Fluorophenyl)-3-cyclohexen-1-yl]-4-(4-pyridinylmethyl)piperazine]
Dopamine D2
  IC50: 50000 to 100000 nM
Sigma receptor
  IC50: 0.5 nM
Brain ischemia; 20 mg/kg
  responders at 20 mg/kg: 83%

## COc1cccc(CN2CCN([C@H]3CC[C@H](c4ccc(F)cc4)CC3)CC2)c1 [Example 65, Trans 1-[4-(4-fluorophenyl)-1-cyclohexyl]-4-[(3-methoxyphenyl)methyl]piperazine]
Dopamine D2
  IC50: 1000 to 10000 nM
Sigma receptor
  IC50: 3.2 nM
Brain ischemia
  responders at 10 mg/kg: 62%

## Fc1ccc([C@H]2CC[C@H](N3CCN(Cc4ccccc4)CC3)CC2)c2ccccc12 [Example 62-trans, Cis and trans 1-[4-(4-fluoro-1-naphthalenyl)-1-cyclohexyl]-4-(phenylmethyl)piperazine]
Dopamine D2
  IC50: > 100000 nM
Sigma receptor
  IC50: 3.3 nM
Brain ischemia
  responders at 40 mg/kg: 100%

## COc1ccc2[nH]cc(C3=CCC(N4CCN(Cc5ccccc5)CC4)CC3)c2c1 (stereo not drawn) [Example 48, 5-Methoxy-3-[4-[4-(phenylmethyl)-1-piperazinyl]-1-cyclohexen-1-yl]-1H-indole]
Dopamine D2
  IC50: 1000 to 10000 nM
Sigma receptor
  IC50: 6.2 nM
Brain ischemia
  responders at 40 mg/kg: 88%

## Fc1ccc2[nH]cc(C3=CCC(N4CCC(Cc5ccccc5)CC4)CC3)c2c1 (stereo not drawn) [Example 51, 5-Fluoro-3-{4-[4-(phenylmethyl)-1-piperidinyl]-1-cyclohexen-1-yl]-1H-indole]
Dopamine D2
  IC50: 1000 to 10000 nM
Sigma receptor
  IC50: 11.1 nM
Brain ischemia; 20 & 40 mg/kg
  responders at 20 mg/kg: 67%
